Test results as given in PMC7036097 (BioMed Research International, 2020).

Target: T1, DPP4 (Homo sapiens, UniProt P27487)
T1 construct: purchased Sigma
Assay: DPPIV-Glo Protease Assay (DPP4 protease inhibition assay)
Format: biochemical
Conditions: in vitro
Description: At the same time, the inhibitory effect of other compounds present in tea such as epigallocatechin, epicatechin gallate, epicatechin, and catechin on DPP4 activity was also determined. […] Epigallocatechin, epicatechin gallate, epicatechin, and catechin were obtained from bidepharm (Shanghai, China). Half maximal inhibitory concentration (IC50) values were determined by nonlinear regression in GraphPad Prism 6 software.

T1 sequence (P27487 whole entry): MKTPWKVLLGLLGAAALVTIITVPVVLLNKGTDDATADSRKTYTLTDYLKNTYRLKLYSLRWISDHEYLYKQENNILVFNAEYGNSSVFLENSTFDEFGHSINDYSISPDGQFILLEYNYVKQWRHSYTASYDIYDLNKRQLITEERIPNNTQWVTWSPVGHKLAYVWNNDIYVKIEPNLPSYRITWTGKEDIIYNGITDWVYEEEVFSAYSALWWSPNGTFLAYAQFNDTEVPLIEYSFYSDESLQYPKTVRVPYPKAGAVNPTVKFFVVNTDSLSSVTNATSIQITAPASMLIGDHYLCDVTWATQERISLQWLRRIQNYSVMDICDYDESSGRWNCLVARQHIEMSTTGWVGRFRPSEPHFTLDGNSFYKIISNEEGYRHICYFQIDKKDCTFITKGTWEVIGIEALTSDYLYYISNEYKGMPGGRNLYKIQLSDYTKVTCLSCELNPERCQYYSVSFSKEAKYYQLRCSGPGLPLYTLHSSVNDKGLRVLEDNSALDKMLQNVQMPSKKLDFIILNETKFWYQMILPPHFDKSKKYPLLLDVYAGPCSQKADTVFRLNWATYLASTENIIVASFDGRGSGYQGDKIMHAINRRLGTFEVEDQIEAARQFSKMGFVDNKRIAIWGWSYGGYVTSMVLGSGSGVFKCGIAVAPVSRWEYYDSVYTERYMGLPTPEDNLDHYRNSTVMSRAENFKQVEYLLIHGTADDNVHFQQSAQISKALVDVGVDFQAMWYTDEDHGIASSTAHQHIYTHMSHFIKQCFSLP

| SMILES | IC50 [µM] |
| --- | --- |
| O=C(OC1Cc2c(O)cc(O)cc2OC1c1cc(O)c(O)c(O)c1)c1cc(O)c(O)c(O)c1 (centres unmarked) [EGCG, Epigallocatechin-3-gallate] | 28.4 |
| Oc1cc(O)c2c(c1)O[C@H](c1ccc(O)c(O)c1)[C@@H](O)C2 [catechin] | 381 |
| O=C(O[C@@H]1Cc2c(O)cc(O)cc2O[C@@H]1c1ccc(O)c(O)c1)c1cc(O)c(O)c(O)c1 [epicatechin gallate] | 107 |
| Oc1cc(O)c2c(c1)O[C@H](c1ccc(O)c(O)c1)[C@H](O)C2 [epicatechin] | 281 |
| Oc1cc(O)c2c(c1)O[C@H](c1cc(O)c(O)c(O)c1)[C@H](O)C2 [epigallocatechin] | 567 |
